From US11952593B2, “Detection and treatment of daughter number variations in cancer cells” (PharmacoGenetics Limited, priority 2020, dated 2024)

Columns and labels:
[1] = tested on: HepG2 hepatocellular carcinoma cells; test: Time-lapse microscopy count of multi-daughter divisions (DNV frequency), HepG2; assay type: cell-based, human; settings: wogonin 50 μM, 5-FU 20 μM
Procedure: To investigate DNVs, the human HepG2 hepatocellular carcinoma, HeLa cervical adenocarcinoma, and A549 lung adenocarcinoma cell lines, as well as the non-cancerous RPE1 line of hTRET-immortalized retina epithelial cells, were obtained from the American Type Culture Collection (ATCC, Manassas, Va., USA) and cultivated in Dulbecco's Modified Eagle Medium (DMEM) supplemented with 10% fetal bovine serum (Gemini Bio-Products, Sacramento. Calif.) under a humidified atmosphere of 5% C02 at 37° C. After 24 hours, the old medium was replaced by acidic DMEM growth medium buffered by 15 mM 2-(N-morpholino)-ethanesulfonic acid.HCl (MES) at pH 6.4, neutral DMEM growth medium buffered by 15 mM 3-(N-morpholino)propanesulfonic acid.HCl (MOPS) at pH 7.4, alkaline growth medium buffered by 15 mM tris(hydroxymethyl)aminomethane.HCl (Tris) at pH 8.4, or neutral DMEM growth medium containing wogonin (50 μM) or 5-FU (20 μM). Using phase contrast microscopy, time-lapse photographs were recorded at different positions of the wells at 15-minute intervals for 24 hours using the Nikon ECLIPSE Ti Live Cell Imaging Observatory, enabling the count of P1 through P8 patterns at the end of Stage 2 of the DNV process (FIG. 1). All the images were photographed at 100× magnification. Altemately, using fluorescence microscopy, the cells were seeded into 12 well plates at 1×10^3 per well and stained with Hoechst 33342 ([…], Thermofisher) for 30 minutes in an incubator at 37° C. After 30 minutes, culture medium was replaced by various treatment media and placed under the Nikon ECLIPSE Ti Live Cell Imaging Observatory for 24 hours. For the HeLa, HepG2 and A549 cells, the various treatments were also extended to 5 days. Because the RPE1 cells yielded no DNVs after 24 hours of drug treatment, its treatment periods were not extended beyond 24 hours. All the cells were manually traced and quantified using the ImageJ software. DNV frequencies were estimated by dividing the total number of multi-daughter ([…]) divisions by the total number of cell divisions. Fluorescence staining and time-lapse microscopy were employed to differentiate between the bi-, tri-, tetra- and penta-daughter cell divisions, and to estimate the percentages of the P1 through P8 patterns in the final daughter cells generated by each of the DNV events. GraphPad Prism 5.0 software was employed for statistical analysis, and the results were presented as the mean. Significance was determined using the Student t-test (two-tailed, unpaired/unequal variances).

A549 cells = test: Daughter-cell subgroups P1 through P8 in mitoses with DNV, A549; assay type: cell-based, human; settings: A549, 24 hours, wogonin 50 μM, 5-FU 20 μM
Description: “Daughter Number Variation” is a process that occurs during mitosis, where more than two daughter cells are produced per mitotic division. It is a two-stage process, wherein cell divisions of mono-nucleate, bi-nucleate, tri-nucleate and tetra-nucleate mother cells at Stage 1 produce subgroups of single mono-nucleate cells (herein referred to as P1), and subgroups containing one bi-nucleate cell and two mono-nucleate cells (herein referred to as P2). Stage 1 is followed by Stage 2, during which time some of the daughter cells from Stage 1 fuse to produce multi-nucleate cell subgroups, where the different subgroups differ with respect to the number of constituent cells and their nucleate status (herein referred to as P3 through P8). All the subgroups from a single DNV mitosis stay close to one another to form a distinct cluster when the cell culture is not overly dense with cells.
P1 subgroup cells are daughter mono-nucleate cells resulting from mitoses with DNV that have not undergone any post-mitotic cell fusion. P2 subgroup daughter cells are clusters of one bi-nucleate cell and two mono-nucleate cells, which also have not undergone any post-mitotic cell fusion during DNV, whereas each of the multi-nucleated subgroups contains at least one cell that is generated from post-mitotic fusions between the Stage 1 cells. P3 through P8 are daughter cell subgroups, which result from cell fusions during DNV, and wherein each subgroup includes at least one multinucleate cell.
By way of example and not of limitation, there is at least one multinucleate cell with two nuclei in P3 and P5, one multinucleate cell with three nuclei in P4 and P6, one multinucleate cell with four nuclei in P7, and one multinucleate cell with five nuclei in P8, sharing the same cytoplasm. More specifically, P3 cell subgroups are clusters of one multinucleate cell with two nuclei and one mononucleate cell, P4 cell subgroups are one multinucleate cell with three nuclei, P5 cell subgroups are clusters of either two multinucleate cells with two nuclei or one multinucleate cell with two nuclei and one binucleate cell, P6 cell subgroups are clusters of one multinucleate cell with three nuclei and one mononucleate cell, P7 cell subgroups are one multinucleate cell with four nuclei, and P8 cell subgroups are one multinucleate cell with five nuclei. P1 through P8 cell subgroups are depicted in detail in FIG. 2.
The counts of P1 and P2 subgroups of cancer cells are then used to obtain their proportions based on the total number of cell subgroups P1 through P8 that resulted from mitotic DNVs during the predetermined period of time. The proportions are typically expressed as percentages. The proportion of P1 subgroup of cells is calculated as (number of P1 subgroups)+(total number of daughter cell subgroups)×100%, and the proportion of (P1 and P2) subgroup is calculated as (number of P1 subgroups+number of P2 subgroups)+(total number of daughter cell subgroups)×100%. This can also be expressed as (number of P1 subgroups)+(total number of P1 through P8 subgroups)×100%, or (number of P1 subgroups+number of P2 subgroups)+(total number of P1 through P8 subgroups)×100%, respectively.
To investigate DNVs, the human HepG2 hepatocellular carcinoma, HeLa cervical adenocarcinoma, and A549 lung adenocarcinoma cell lines, as well as the non-cancerous RPE1 line of hTRET-immortalized retina epithelial cells, were obtained from the American Type Culture Collection (ATCC, Manassas, Va., USA) and cultivated in Dulbecco's Modified Eagle Medium (DMEM) supplemented with 10% fetal bovine serum (Gemini Bio-Products, Sacramento. Calif.) under a humidified atmosphere of 5% C02 at 37° C. […]

Structure (SMILES) | Bi-daughter divisions, % of total divisions ([1]; HepG2, 24 hours) [%] | Bi-daughter divisions, number ([1]; HepG2, 24 hours) | Sum of Multi daughter Divisions, % of total mitotic divisions ([1]; HepG2, 24 hours) [%] | Sum of Multi daughter Divisions, number ([1]; HepG2, 24 hours) | Tetra-daughter divisions, % of total divisions ([1]; HepG2, 24 hours) [%] | Tetra-daughter divisions, number ([1]; HepG2, 24 hours) | Total number of observed divisions ([1]; HepG2, 24 hours) | Tri-daughter divisions, % of total divisions ([1]; HepG2, 24 hours) [%] | Tri-daughter divisions, number ([1]; HepG2, 24 hours) | ≥Tetra-daughter divisions, number ([1]; HepG2, 24 hours) | Bi-daughter divisions, % of total divisions ([1]; HepG2, 5 days) [%] | Bi-daughter divisions, number ([1]; HepG2, 5 days) | Sum of Multi-daughter Divisions, % of total mitotic divisions ([1]; HepG2, 5 days) [%] | Sum of Multi-daughter Divisions, number ([1]; HepG2, 5 days) | Tetra-daughter divisions, % of total divisions ([1]; HepG2, 5 days) [%] | Tetra-daughter divisions, number ([1]; HepG2, 5 days) | Total Divisions ([1]; HepG2, 5 days) | Tri-daughter divisions, % of total divisions ([1]; HepG2, 5 days) [%] | Tri-daughter divisions, number ([1]; HepG2, 5 days) | ≥Tetra-daughter divisions, % of total divisions ([1]; HepG2, 5 days) [%] | further results
COc1c(O)cc(O)c2c(=O)cc(-c3ccccc3)oc12 [Wogonin, wogonin] | 97.0 | 2482 | 2.97 | 76 | 0.70 | 18 | 2558 (100) | 2.19 | 56 | 2 | 83.9 | 262 | 16.0 | 50 | 3.8 | 12 | 312 (100) | 16.0 | 50 | 2.5 | ≥Tetra-daughter divisions, % of total divisions ([1]; HepG2, 24 hours): 0.08%; ≥Tetra-daughter divisions, number ([1]; HepG2, 5 days): 8; Sum of Multi-daughter Divisions, % of total mitotic divisions ([1]; HepG2, 5 days, listed as wogonin): 18.0%; Mitoses with DNV, number (A549 cells): 7; P1 + P2 subgroups, % of all P1 through P8 subgroups (A549 cells): (57.1) %; P1 + P2 subgroups, number (A549 cells): 4; P1 subgroups, % of all P1 through P8 subgroups (A549 cells): (57.1) %; P1 subgroups, number (A549 cells): 4; P2 subgroups, number (A549 cells): 0; P3 subgroups, % of all P1 through P8 subgroups (A549 cells): (42.8) %; P3 subgroups, number (A549 cells): 3; P4 subgroups, number (A549 cells): 0; P5 subgroups, number (A549 cells): 0; P6 subgroups, number (A549 cells): 0; P7 subgroups, number (A549 cells): 0; P8 subgroups, number (A549 cells): 0; P1 + P2 subgroups, % of all P1 through P8 subgroups (A549 cells; listed as wogonin): 57.1%; P1 subgroups, % of all P1 through P8 subgroups (A549 cells; listed as wogonin): 57.1%
O=c1[nH]cc(F)c(=O)[nH]1 [5-FU, 5-flurouracil] | 99.1 | 1995 | 0.94 | 19 | 0.25 | 5 | 2014 (100) | 0.69 | 14 | 0 | 90.6 | 270 | 9.30 | 28 | 2.6 | 8 | 298 (100) | 5.7 | 17 | 1.0 | ≥Tetra-daughter divisions, number ([1]; HepG2, 5 days): 3; Mitoses with DNV, number (A549 cells): 3; P1 + P2 subgroups, number (A549 cells): 3; P1 subgroups, number (A549 cells): 3; P2 subgroups, number (A549 cells): 0; P3 subgroups, number (A549 cells): 0; P4 subgroups, number (A549 cells): 0; P5 subgroups, number (A549 cells): 0; P6 subgroups, number (A549 cells): 0; P7 subgroups, number (A549 cells): 0; P8 subgroups, number (A549 cells): 0
